The values below come from paper PMC7875911 (Frontiers in Pharmacology, 2021).

For experiment [1], the system named is TTXs-I Na in small-diameter IB4 ^± DRG neurons. How it is done:
(§1) Spinal level L3–L5 DRG were removed and placed in ice-cold HEPES-buffered saline (HBS) composed of (in mM): 154 NaCl, 2.5 KCl, 1.8 CaCl2, 1.5 MgCl2, 10 HEPES, and 10 glucose (pH 7.4, 330 ± 5 mOsm). Iridectomy scissors were utilized to cut up ganglia before incubation at 37°C for 15 min in oxygenated HBS containing 5 mg ml^−1 collagenase type 2 (Worthington Biochemical Corp, Lakewood, NJ, United States) followed by 25 min in oxygenated HBS containing 1 mg ml^−1 papain (Worthington Biochemical Corp). […] After enzyme treatment, ganglia were placed in 3 ml of HBS following two room temperature HBS washes. Ganglia were then triturated through fire-polished Pasteur pipettes with decreasing bores to extract cells. Finally, the cells mixed in HBS were plated onto surface modified culture dishes (Corning Primaria™ easy grip). […] DRG cells were pre-treated with 1 μg ml^−1 Alexa Fluor 488-conjugated Bandeiraea simplicifolia IB4 (Invitrogen) for 5 min at room temperature and washed with HBS for 5 min before fluorescence was examined on the inverted microscope (Olympus, IX50) used for patch clamp recordings.
(§2) Cell size was determined from an eyepiece graticule. Whole-cell electrophysiology was conducted at room temperature (22–24°C) in culture dishes perfused with room temperature HBS. The intracellular pipette solution contained (mM): 120 CsCl, 10 HEPES, 10 EGTA, 2 CaCl2, 5 MgATP, 5 Na2GTP, 5 NaCl; pH 7.3 (CsOH); 285 ± 5 mos mol l^−1.
(§3) An EPC-9 patch-clamp amplifier and corresponding PULSE software from HEKA Electronik (Lambrecht/Pfalz, Germany) were used to make recordings. Currents were sampled at 50 kHz and recorded on a hard disk. Borosilicate glass from AM Systems, Everett, WA, United States were used for patch pipettes. The input resistance of the pipettes ranged from 2 to 4 MΩ. […] A built-in procedure of the HEKA amplifier compensated for the capacitive transient currents. A −P/6 protocol was utilized to subtract leak current online. I Ca was generated with the recording protocol which included a depolarization from a holding potential of −80 mV to 0 mV for 10 ms every 30 s. I Na was generated through a recording protocol which included a step depolarization from a holding potential of −80 mV to 0 mV for 10 ms at a frequency of 0.1 Hz. Cells were perfused with the test compound via a pressure driven perfusion system (AutoMate Scientific, United States).
(§4) All data analysis and graphs were generated in OriginPro (Origin Lab Corporation, United States). […] Activation and SSI curves were fit by the modified Boltzmann equation: I or G=1/(1+exp(Vm−V0.5/ka)) Where I is the current or G is the conductance, Vm is the pre-pulse potential, V 0.5 is the half-maximal activation potential and ka is the slope factor.
(§5) Statistical significance (p < 0.05) was determined using unpaired Student’s t-test or 1-way ANOVA followed by a Tukey multiple comparison. All data is presented as mean ± SEM (n), where n is individual cells.

The subject of experiment [2] is TTXs-I Na in small-diameter IB4 ^− DRG neurons. On the procedure: as §1, §2, §3, §4, §5
The target in experiment [3] is T1, hCav2.2 (Homo sapiens, UniProt Q00975).
T1 construct: expressed in transfected cells; host or cells: HEK293 (HEK293T), transient calcium phosphate co-transfection
T1 sequence (P54289 25-956): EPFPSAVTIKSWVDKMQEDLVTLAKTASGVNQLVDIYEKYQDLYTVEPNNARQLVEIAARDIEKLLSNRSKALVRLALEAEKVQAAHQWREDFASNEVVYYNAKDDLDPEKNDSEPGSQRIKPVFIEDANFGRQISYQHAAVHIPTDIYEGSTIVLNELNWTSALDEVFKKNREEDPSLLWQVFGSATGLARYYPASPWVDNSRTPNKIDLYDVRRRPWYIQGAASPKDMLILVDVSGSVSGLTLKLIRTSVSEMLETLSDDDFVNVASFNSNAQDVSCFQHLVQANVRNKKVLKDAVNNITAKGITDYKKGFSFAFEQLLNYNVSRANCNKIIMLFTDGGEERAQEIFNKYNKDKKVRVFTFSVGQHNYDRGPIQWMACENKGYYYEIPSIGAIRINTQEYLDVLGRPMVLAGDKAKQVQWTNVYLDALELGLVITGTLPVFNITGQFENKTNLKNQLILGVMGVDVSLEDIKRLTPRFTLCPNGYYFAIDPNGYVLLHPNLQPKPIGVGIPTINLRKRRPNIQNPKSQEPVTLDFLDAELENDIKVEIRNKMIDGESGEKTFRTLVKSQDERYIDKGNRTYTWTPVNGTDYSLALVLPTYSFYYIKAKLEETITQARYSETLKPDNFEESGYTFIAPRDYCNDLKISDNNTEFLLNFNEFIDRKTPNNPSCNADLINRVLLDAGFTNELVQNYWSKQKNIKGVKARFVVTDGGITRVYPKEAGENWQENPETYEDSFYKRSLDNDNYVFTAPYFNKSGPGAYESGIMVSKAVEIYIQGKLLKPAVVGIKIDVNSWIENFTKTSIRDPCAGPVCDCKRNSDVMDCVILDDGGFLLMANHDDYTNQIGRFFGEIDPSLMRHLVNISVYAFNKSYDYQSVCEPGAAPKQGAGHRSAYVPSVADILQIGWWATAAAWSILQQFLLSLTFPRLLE
T1 sequence (P54289 957-1103): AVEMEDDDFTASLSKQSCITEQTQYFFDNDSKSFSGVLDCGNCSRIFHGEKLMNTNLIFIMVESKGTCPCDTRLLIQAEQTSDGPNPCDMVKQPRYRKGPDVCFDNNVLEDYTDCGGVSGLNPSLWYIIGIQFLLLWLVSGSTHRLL
T1 sequence (Q00975 whole entry): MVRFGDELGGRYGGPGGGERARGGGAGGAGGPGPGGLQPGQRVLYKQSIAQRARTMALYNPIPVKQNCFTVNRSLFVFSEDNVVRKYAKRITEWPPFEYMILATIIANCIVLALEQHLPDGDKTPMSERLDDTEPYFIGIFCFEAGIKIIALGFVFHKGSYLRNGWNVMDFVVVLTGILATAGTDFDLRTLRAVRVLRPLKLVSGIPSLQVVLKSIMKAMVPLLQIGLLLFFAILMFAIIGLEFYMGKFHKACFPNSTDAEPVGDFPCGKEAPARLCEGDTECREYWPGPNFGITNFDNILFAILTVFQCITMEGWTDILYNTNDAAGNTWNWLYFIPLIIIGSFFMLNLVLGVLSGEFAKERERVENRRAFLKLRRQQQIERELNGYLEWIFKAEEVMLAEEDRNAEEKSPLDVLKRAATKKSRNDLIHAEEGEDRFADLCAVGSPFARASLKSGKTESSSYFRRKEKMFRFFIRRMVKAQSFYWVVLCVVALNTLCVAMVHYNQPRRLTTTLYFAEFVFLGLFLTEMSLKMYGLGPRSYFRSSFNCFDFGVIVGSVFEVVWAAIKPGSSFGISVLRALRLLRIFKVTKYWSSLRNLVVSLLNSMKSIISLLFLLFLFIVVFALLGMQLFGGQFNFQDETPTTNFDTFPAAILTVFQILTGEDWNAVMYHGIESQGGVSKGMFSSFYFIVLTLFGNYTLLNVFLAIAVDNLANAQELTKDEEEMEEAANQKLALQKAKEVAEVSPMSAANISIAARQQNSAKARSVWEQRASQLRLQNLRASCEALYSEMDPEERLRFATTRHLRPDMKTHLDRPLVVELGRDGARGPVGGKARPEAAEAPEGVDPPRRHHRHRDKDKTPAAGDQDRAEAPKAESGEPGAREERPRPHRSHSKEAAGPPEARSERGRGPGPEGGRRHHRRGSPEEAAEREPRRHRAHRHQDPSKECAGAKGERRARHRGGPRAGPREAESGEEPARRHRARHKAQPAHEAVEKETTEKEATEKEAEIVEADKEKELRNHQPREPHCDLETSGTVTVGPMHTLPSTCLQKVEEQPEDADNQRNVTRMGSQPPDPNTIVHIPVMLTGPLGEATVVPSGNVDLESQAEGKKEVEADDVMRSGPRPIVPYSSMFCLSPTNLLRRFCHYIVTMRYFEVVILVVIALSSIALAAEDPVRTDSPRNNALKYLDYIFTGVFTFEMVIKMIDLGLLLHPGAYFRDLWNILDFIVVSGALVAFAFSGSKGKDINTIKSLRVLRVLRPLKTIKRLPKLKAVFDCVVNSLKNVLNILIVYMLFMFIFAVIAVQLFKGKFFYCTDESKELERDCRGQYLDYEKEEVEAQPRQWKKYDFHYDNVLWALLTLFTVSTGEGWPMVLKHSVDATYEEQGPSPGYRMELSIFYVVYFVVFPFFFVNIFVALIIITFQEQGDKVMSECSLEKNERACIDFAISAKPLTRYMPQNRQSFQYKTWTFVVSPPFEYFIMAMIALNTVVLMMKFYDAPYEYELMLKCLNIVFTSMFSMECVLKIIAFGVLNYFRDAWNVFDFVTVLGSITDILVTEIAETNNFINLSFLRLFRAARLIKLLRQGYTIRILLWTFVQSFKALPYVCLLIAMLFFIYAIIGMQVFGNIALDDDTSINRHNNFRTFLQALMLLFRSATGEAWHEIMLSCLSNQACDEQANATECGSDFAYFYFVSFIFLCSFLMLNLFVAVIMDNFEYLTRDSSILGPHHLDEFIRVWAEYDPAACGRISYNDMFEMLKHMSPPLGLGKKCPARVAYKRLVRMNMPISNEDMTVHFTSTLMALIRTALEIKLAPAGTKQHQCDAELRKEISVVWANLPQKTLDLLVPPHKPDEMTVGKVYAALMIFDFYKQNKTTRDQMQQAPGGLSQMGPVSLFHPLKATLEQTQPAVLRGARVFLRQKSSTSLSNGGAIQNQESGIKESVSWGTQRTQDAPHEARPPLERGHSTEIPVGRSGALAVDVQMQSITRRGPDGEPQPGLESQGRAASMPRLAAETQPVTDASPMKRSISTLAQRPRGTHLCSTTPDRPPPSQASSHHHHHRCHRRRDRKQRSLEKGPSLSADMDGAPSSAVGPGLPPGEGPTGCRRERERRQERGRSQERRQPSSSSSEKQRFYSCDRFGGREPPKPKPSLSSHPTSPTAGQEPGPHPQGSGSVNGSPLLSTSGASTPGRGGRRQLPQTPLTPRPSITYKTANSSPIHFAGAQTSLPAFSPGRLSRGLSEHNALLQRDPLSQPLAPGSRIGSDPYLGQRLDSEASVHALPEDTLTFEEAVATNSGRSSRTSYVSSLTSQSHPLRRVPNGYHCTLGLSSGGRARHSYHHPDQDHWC
T1 sequence (P54284 whole entry, further chain): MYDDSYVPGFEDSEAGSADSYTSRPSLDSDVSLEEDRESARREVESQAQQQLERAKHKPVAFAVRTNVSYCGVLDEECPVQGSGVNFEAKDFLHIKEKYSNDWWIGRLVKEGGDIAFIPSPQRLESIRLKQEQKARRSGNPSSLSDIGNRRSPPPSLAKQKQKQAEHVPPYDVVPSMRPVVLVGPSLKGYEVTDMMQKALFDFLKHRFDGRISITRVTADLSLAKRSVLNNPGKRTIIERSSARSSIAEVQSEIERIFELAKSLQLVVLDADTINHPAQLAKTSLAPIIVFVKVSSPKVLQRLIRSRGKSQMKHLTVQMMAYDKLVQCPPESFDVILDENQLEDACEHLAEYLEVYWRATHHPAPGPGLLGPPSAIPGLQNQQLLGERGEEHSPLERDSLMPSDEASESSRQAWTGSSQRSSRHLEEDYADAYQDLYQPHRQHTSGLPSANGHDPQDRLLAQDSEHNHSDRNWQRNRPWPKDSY
Nature of the experiment: cell-based. How it is done:
Human embryonic kidney (HEK293T) cells containing the SV40 Large T-antigen were cultured at 37°C, 5% CO2 in Dulbecco’s Modified Eagle’s Medium (DMEM, Invitrogen Life Technologies, Australia), supplemented with 10% fetal bovine serum (FBS, Bovigen, Australia), 1% GlutaMAX and penicillin-streptomycin (Invitrogen, Australia). HEK293 cells were then transiently co-transfected with the different voltage-gated calcium channel isoforms and green fluorescent protein (GFP) for visualization, using the calcium phosphate method. cDNAs encoding mCav1.2 (a gift from Dr. D. Lipscombe; Addgene plasmid #26572) ([Helton et al., 2005]), rCav1.3 (a gift from Dr. D. Lipscombe; Addgene plasmid # 49,333) ([Xu and Lipscombe, 2001]), hCav2.1 (a gift from Dr. J. Striessnig), rCav2.2 (a gift from Dr. D. Lipscombe), hCav2.2 (a gift from Dr. D. Yue), hCav2.3 (purchased from GenScript United States Inc.) were co-transfected with β3, α2δ1 and GFP. After transfection, cells were plated on 12 mm cover glass and transferred to a 30°C incubator for 1–3 days.
Depolarization-activated Ca^2+ currents (ICa) in transfected HEK293 cells were recorded in the whole-cell patch clamp configuration. Data were recorded using a MultiClamp 700B amplifier, digitized with a DigiData1440 and controlled using Clampex10.7 software (Molecular Devices, United States). Currents were sampled at 100 kHz and filtered to 10 kHz, with leak and capacitive currents subtracted using a −P/4 protocol. […] Intracellular recording solution contained as follows (mM): 140 KGluconate, 5 NaCl, 2 MgCl2, 5 EGTA and 10 HEPES, pH 7.2 with KOH. Cells were continuously perfused with extracellular solution at a rate of ∼1.2 ml/min. […]
(§6) Statistical significance (p < 0.05) was determined using unpaired Student’s t-test or 1-way ANOVA followed by a Tukey multiple comparison. […]
(§7) Numerous HVA Cav channel isoforms are present in rat DRG neurons. […] We transiently co-transfected the individual Cav channel α-subunits of interest together with β3 and α2δ1 subunits in HEK293 cells and measured whole-cell I Ca currents by patch clamp. […]

The test system of experiment [4] is HVA I Ca in small-diameter IB4 ^− DRG neurons. The experiment can be described thus: cells. On the procedure:
as §1, §2, §3, §4, §5

Experiment [5] relates to Cav1.2, Cav1.3, Cav2.1, and Cav2.2. On the procedure:
Human embryonic kidney (HEK293T) cells containing the SV40 Large T-antigen were cultured at 37°C, 5% CO2 in Dulbecco’s Modified Eagle’s Medium (DMEM, Invitrogen Life Technologies, Australia), supplemented with 10% fetal bovine serum (FBS, Bovigen, Australia), 1% GlutaMAX and penicillin-streptomycin (Invitrogen, Australia). […]
Depolarization-activated Ca^2+ currents (ICa) in transfected HEK293 cells were recorded in the whole-cell patch clamp configuration. Data were recorded using a MultiClamp 700B amplifier, digitized with a DigiData1440 and controlled using Clampex10.7 software (Molecular Devices, United States). […]
as §6, §7

The target of experiment [6] is hNav1.7 (Homo sapiens, UniProt Q15858). In kind it is cell-based.
Text: as §3

Structures are written as SMILES. Values joined by “and” are separate entries in the source; they are usually repeats but may differ in a detail not shown here. Equal entries are not always repeated. Where two headings read alike, the source gives them in different places. Some results are limits rather than exact numbers.

A word on the inhibition: it is how much of the control response was suppressed. In the case of `CSCC[C@@H]1NC(=O)[C@H](Cc2ccc(O)cc2)NC(=O)[C@H](CCCNC(=N)N)NC(=O)[C@@H](NC(=O)[C@@H](N)CC(=O)O)CSSC[C@@H]2NC(=O)[C@@H]3CSSC[C@@H](C(=O)N[C@@H](C)C(=O)N[C@@H](Cc4c[nH]c5ccccc45)C(=O)N[C@@H](CC(=O)O)C(=O)N[C@@H](Cc4ccccc4)C(=O)N[C@H](C(=O)N[C@@H](Cc4ccccc4)C(=O)N[C@H](C(=O)O)[C@@H](C)O)[C@@H](C)O)NC(=O)[C@H](Cc4ccc(O)cc4)NC(=O)[C@H](CCCCN)NC(=O)[C@H](CCSC)NC(=O)[C@H](CCCCN)NC(=O)[C@H](CCCNC(=N)N)NC(=O)[C@H](CCCCN)NC(=O)[C@H](CSSC[C@H](NC(=O)[C@H](CC(=O)O)NC(=O)CNC(=O)[C@H](Cc4ccccc4)NC1=O)C(=O)N[C@@H](CCC(=O)O)C(=O)N[C@@H](CCCCN)C(=O)N[C@@H](CC(=O)O)C(=O)N[C@@H](CCC(=O)O)C(=O)N[C@@H](CC(=O)O)C(=O)N3)NC(=O)CNC(=O)[C@H](CC(C)C)NC(=O)[C@H](Cc1c[nH]cn1)NC(=O)[C@H](CCCCN)NC2=O` [Pn3a, µ-Theraphotoxin-Pn3a], in experiment [1], the “I Na remaining after application” value was about 50% and the “reversibility on washout of TTXs-I Na inhibition” value is reported as “fully reversible upon washout”. In addition, in experiment [2], the “I Na remaining after application” value is on record as about 50%, the “potency loss versus reported recombinant hNav1.7” value was about 250 fold and the “reversibility on washout of TTXs-I Na inhibition” value is “fully reversible upon washout”. Besides, in experiment [3], the “Hill coefficient n H” value is listed as 1.16 ± 0.07 and the “effect on depolarization-activated hCav2.2 current kinetics (in words)” value is recorded as “not altered”. Further, the inhibition at 10 µM in experiment [3] (HEK293, read-out: inhibition of human Cav2.2-mediated current) was determined as 71.8 ± 0.6%. In experiment [4], the “HVA I Ca spared” value is recorded as “half”, the “inhibition of HVA I Ca” value is 4.45 ± 0.78% and the “suppression of I Ca” value is given as 13.97 ± 1.39%. For the same compound, the “inhibition of HVA I Ca” value in experiment [4] (10 µM) was ~55% and 56.5 ± 1.9%. For the same compound, the “reversibility of block on washout” value in experiment [5] is listed as “fully reversible upon washout”. Also, in experiment [6], the “concentration at which inhibition is reliably distinguished from current rundown” value is on record as over 10 nM, the “difference in hNav1.7 potency from reported value” is about 30 fold and the “reversibility of hNav1.7 inhibition” value is on record as “virtually irreversible at higher concentrations”.
